According to ChEMBL document CHEMBL1201862, “PubChem BioAssay data set” (2004):
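A five-concentration, 48-hour dose response in 96-well plates underlies each endpoint, interpolated linearly between surrounding concentrations. GI50 = concentration required for 50% inhibition of growth.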 The source made the active and inactive calls. No stated cut-off is given here; in the data, active = GI50 up to about 1.1 µM and inactive = higher.

Key:
Test in all cases: growth of human tumour cells (NCI), 48 h
BT-549 = test system: BT-549
DMS-114 = test system: DMS-114
XF498 = test system: XF498
LXFL 529 = test system: LXFL 529
DMS-273 = test system: DMS-273
KM-20L2 = test system: KM-20L2
SNB-78 = test system: SNB-78
HOP-18 = test system: HOP-18
RXF 631 = test system: RXF 631

CCCCCCCCC/C=C1/CC(CO)(COC(=O)c2ccccc2)OC1=O (configuration not stated)
GI50 (BT-549): 14.1 µM (inactive)

OC(c1ccccc1)(c1ccccc1)c1ccncc1
GI50 (DMS-114): > 100 µM (inactive) | GI50 (XF498): > 100 µM (inactive) | GI50 (LXFL 529): > 100 µM (inactive) | GI50 (DMS-273): > 100 µM (inactive) | GI50 (KM-20L2): > 100 µM (inactive) | GI50 (SNB-78): > 100 µM (inactive) | GI50 (HOP-18): > 100 µM (inactive)

O=P(O)(O)CCP(=O)(O)O
GI50 (BT-549): > 100 µM (inactive)

CC1(O)/C(=N/O)CC2CC1C2(C)C (configuration not stated)
GI50 (BT-549): > 100 µM (inactive)

COc1ccc2c(c1)C(=O)c1ccc(OC)cc1C2=S
GI50 (DMS-114): > 100 µM (inactive) | GI50 (XF498): 85.3 µM (inactive) | GI50 (DMS-273): > 100 µM (inactive) | GI50 (KM-20L2): > 100 µM (inactive) | GI50 (SNB-78): 30.7 µM (inactive) | GI50 (HOP-18): > 100 µM (inactive)

COC(=O)c1csnn1
GI50 (DMS-114): > 100 µM (inactive) | GI50 (XF498): > 100 µM (inactive) | GI50 (LXFL 529): > 100 µM (inactive) | GI50 (DMS-273): > 100 µM (inactive) | GI50 (KM-20L2): > 100 µM (inactive)

N#Cc1nc(Nc2cccc3ccccc23)sc1N
GI50 (XF498): 20.3 µM (inactive) | GI50 (LXFL 529): 29.9 µM (inactive) | GI50 (DMS-273): 36.8 µM (inactive) | GI50 (KM-20L2): 43.2 µM (inactive) | GI50 (SNB-78): 13 µM (inactive)

CCOC(=O)CCC(C(=O)OCC)n1nc2ccc(Nc3c(C)[n+]([O-])c4cc(F)c(OCC)cc4[n+]3[O-])cc2n1 (configuration not stated)
GI50 (BT-549): 34 µM (inactive)

COc1ccc(CC2c3c(cc(OC)c(OC)c3OC)CCN2C)cc1OC (configuration not stated)
GI50 (XF498): > 100 µM (inactive) | GI50 (LXFL 529): > 100 µM (inactive) | GI50 (KM-20L2): > 100 µM (inactive) | GI50 (SNB-78): 60 µM (inactive) | GI50 (HOP-18): 51.2 µM (inactive)

Cc1cc(C)n(CN(Cn2nc(C)cc2C)C2CCCCC2)n1
GI50 (BT-549): 23.3 µM (inactive)

CCN(CC)CCn1ncc2ccc3c(c(=O)c4cccnc4n3CCN(CC)CC)c21
GI50 (BT-549): 2.25 µM (inactive)

Cc1cc(N(CCC#N)CCC#N)ccc1C(/N=N/c1ccc([N+](=O)[O-])cc1)=N\NC(=O)c1cc(Cl)ccc1C(=O)c1ccccc1
GI50 (BT-549): 19 µM (inactive)

COC(=O)c1ccccc1C#CCCCOS(C)(=O)=O
GI50 (BT-549): > 10 µM (inactive)

CC(=O)NC(CCCNC(=O)NCCCl)C(=O)NCc1ccccc1 (configuration not stated)
GI50 (DMS-114): > 100 µM (inactive) | GI50 (RXF 631): > 100 µM (inactive) | GI50 (LXFL 529): > 100 µM (inactive) | GI50 (DMS-273): > 100 µM (inactive) | GI50 (KM-20L2): > 100 µM (inactive) | GI50 (HOP-18): > 100 µM (inactive)

O=S(=O)(c1ccccc1)c1ccc(-c2nc(-c3ccc4c(c3)Sc3ccccc3S4)cs2)cc1
GI50 (BT-549): 30.3 µM (inactive)

CN1C/C(=C\C=C\c2ccccc2)C(=O)/C(=C/C=C/c2ccccc2)C1
GI50 (DMS-114): > 100 µM (inactive) | GI50 (XF498): > 100 µM (inactive) | GI50 (RXF 631): > 100 µM (inactive) | GI50 (LXFL 529): 78.7 µM (inactive) | GI50 (DMS-273): > 100 µM (inactive) | GI50 (KM-20L2): > 100 µM (inactive) | GI50 (SNB-78): > 100 µM (inactive)

CSc1nc(=O)c(C#N)c(-c2ccccc2)n1C1OC(COC(C)=O)C(OC(C)=O)C(OC(C)=O)C1OC(C)=O (configuration not stated)
GI50 (BT-549): > 100 µM (inactive)

O=C(/C=C/c1ccccc1)Nc1ccccc1SCCCCl
GI50 (BT-549): 8.11 µM (inactive)

N=C(N)Nc1ccc(CC(N)NCC(=O)O)cc1 (configuration not stated)
GI50 (BT-549): > 25 µM (inactive)

CC(NC(=O)C(C)C(=O)Nc1ccc(C(F)(F)F)cc1)C(N)=O (configuration not stated)
GI50 (BT-549): > 100 µM (inactive)

CCc1cccc(C)c1NS(=O)(=O)c1ccccc1
GI50 (DMS-114): > 100 µM (inactive) | GI50 (XF498): > 100 µM (inactive) | GI50 (RXF 631): > 100 µM (inactive) | GI50 (LXFL 529): > 100 µM (inactive) | GI50 (DMS-273): > 100 µM (inactive) | GI50 (KM-20L2): > 100 µM (inactive) | GI50 (SNB-78): > 100 µM (inactive)

C/C(=N\NC(C)(C)C)c1sc(-c2nc(C)c(/C(C)=N/NC(C)(C)C)s2)nc1C
GI50 (DMS-114): > 100 µM (inactive) | GI50 (RXF 631): > 100 µM (inactive) | GI50 (LXFL 529): > 100 µM (inactive) | GI50 (DMS-273): > 100 µM (inactive) | GI50 (KM-20L2): > 100 µM (inactive) | GI50 (SNB-78): > 100 µM (inactive) | GI50 (HOP-18): > 100 µM (inactive)

COc1ccc(/C=c2\s/c(=C3/SC(=S)N(c4ccccc4)C3=O)n(-c3ccccc3)c2=O)cc1
GI50 (BT-549): 43.2 µM (inactive)

CCOP(=O)(OCC)/C(C#N)=C/c1ccc[nH]1
GI50 (DMS-114): > 100 µM (inactive) | GI50 (LXFL 529): > 100 µM (inactive) | GI50 (DMS-273): > 100 µM (inactive) | GI50 (KM-20L2): > 100 µM (inactive) | GI50 (SNB-78): > 100 µM (inactive) | GI50 (HOP-18): > 100 µM (inactive)

C[C@]12CC[C@H]3[C@@H](CCC4=CC(=O)CC[C@@]43C)[C@]1(O)CC[C@]2(O)C(=O)CO
GI50 (BT-549): > 100 µM (inactive)

FC(F)(F)c1ccc2c(c1)nc(Cc1ccccc1)n2C[C@@H]1CCCN2CCCCC12 (some centres not stated)
GI50 (BT-549): 14 µM (inactive)

O=C1c2ccccc2CC12Cc1ccc3c(c1C2=O)CCCC3 (configuration not stated)
GI50 (BT-549): > 100 µM (inactive)

Cc1ccc(SC2C(C)(C)N(C(C)C)P2(=O)N(C(C)C)C(C)C)cc1 (configuration not stated)
GI50 (LXFL 529): 21.3 µM (inactive) | GI50 (DMS-273): 13.4 µM (inactive) | GI50 (KM-20L2): 34 µM (inactive) | GI50 (SNB-78): > 68.5 µM (inactive) | GI50 (HOP-18): > 100 µM (inactive)

CN(c1ccccc1)C1C(=O)N(c2ccccc2)C1/C=C/c1ccccc1 (configuration not stated)
GI50 (LXFL 529): > 100 µM (inactive) | GI50 (DMS-273): > 100 µM (inactive) | GI50 (SNB-78): > 100 µM (inactive)

Br[C@@H]1[C@H]2c3nc4ccccc4nc3[C@@H]1C[C@H]2Br
GI50 (BT-549): 65.5 µM (inactive)
